In brackets after ≈: the same amount, converted by molar mass. Activity calls are given as the source filed them. No cut-off for these calls is given here.
Tests used:
Format in all cases: functional
Escherichia coli = assay: Antibacterial activity against Escherichia coli assessed as growth inhibition after 24 hr by agar well diffusion method
Bacillus subtilis = assay: Antibacterial activity against Bacillus subtilis assessed as growth inhibition after 24 hr by agar well diffusion method
Aspergillus fumigatus = assay: Antifungal activity against Aspergillus fumigatus assessed as growth inhibition after 48 hr by broth dilution method
Pseudomonas aeruginosa = assay: Antibacterial activity against Pseudomonas aeruginosa assessed as growth inhibition after 24 hr by agar well diffusion method
Staphylococcus aureus = assay: Antibacterial activity against Staphylococcus aureus assessed as growth inhibition after 24 hr by agar well diffusion method
Shigella flexneri = assay: Antibacterial activity against Shigella flexneri assessed as growth inhibition after 24 hr by agar well diffusion method
Salmonella typhi = assay: Antibacterial activity against Salmonella enterica subsp. enterica serovar Typhi assessed as growth inhibition after 24 hr by agar well diffusion method
Alternaria alternata = assay: Antifungal activity against Alternaria alternata assessed as growth inhibition after 48 hr by broth dilution method
Aspergillus flavus = assay: Antifungal activity against Aspergillus flavus assessed as growth inhibition after 48 hr by broth dilution method

COc1cc(-c2cc(-c3ccc(-n4ccnc4)cc3)nc(N)n2)ccc1OO
diameter of the inhibition zone (DIZ) (Escherichia coli): 15 mm
growth inhibition (GI) (Bacillus subtilis): inactive
MIC (Aspergillus fumigatus): > 1000 µg/mL
diameter of the inhibition zone (DIZ) (Pseudomonas aeruginosa): 10 mm
diameter of the inhibition zone (DIZ) (Staphylococcus aureus): 13 mm
growth inhibition (GI) (Shigella flexneri): inactive
growth inhibition (GI) (Salmonella typhi): inactive
MIC (Alternaria alternata): > 1000 µg/mL
MIC (Aspergillus flavus): 1000 µg/mL (≈ 2660 µM)

C[C@@H](O)[C@H]1C(=O)N2C(C(=O)O)=C(SCCNC=N)C[C@H]12 [IMIPENEM ANHYDROUS]
diameter of the inhibition zone (DIZ) (Escherichia coli): 35 mm
diameter of the inhibition zone (DIZ) (Bacillus subtilis): 30 mm
diameter of the inhibition zone (DIZ) (Pseudomonas aeruginosa): 31 mm
diameter of the inhibition zone (DIZ) (Staphylococcus aureus): 30 mm
diameter of the inhibition zone (DIZ) (Shigella flexneri): 30 mm
diameter of the inhibition zone (DIZ) (Salmonella typhi): 25 mm

COc1ccc(-c2cc(-c3ccc(-n4ccnc4)cc3)nc(N)n2)cc1
diameter of the inhibition zone (DIZ) (Escherichia coli): 12 mm
diameter of the inhibition zone (DIZ) (Bacillus subtilis): 14 mm
MIC (Aspergillus fumigatus): 1000 µg/mL (≈ 2910 µM)
diameter of the inhibition zone (DIZ) (Pseudomonas aeruginosa): 11 mm
growth inhibition (GI) (Staphylococcus aureus): inactive
diameter of the inhibition zone (DIZ) (Shigella flexneri): 11 mm
growth inhibition (GI) (Salmonella typhi): inactive
MIC (Alternaria alternata): > 1000 µg/mL
MIC (Aspergillus flavus): > 1000 µg/mL

Nc1nc(-c2ccc(-n3ccnc3)cc2)cc(-c2cc(Cl)ccc2Cl)n1
diameter of the inhibition zone (DIZ) (Escherichia coli): 12 mm
diameter of the inhibition zone (DIZ) (Bacillus subtilis): 12 mm
MIC (Aspergillus fumigatus): > 1000 µg/mL
growth inhibition (GI) (Pseudomonas aeruginosa): inactive
growth inhibition (GI) (Staphylococcus aureus): inactive
diameter of the inhibition zone (DIZ) (Shigella flexneri): 12 mm
growth inhibition (GI) (Salmonella typhi): inactive
MIC (Alternaria alternata): > 1000 µg/mL
MIC (Aspergillus flavus): > 1000 µg/mL

COc1cccc(-c2cc(-c3ccc(-n4ccnc4)cc3)nc(N)n2)c1
diameter of the inhibition zone (DIZ) (Escherichia coli): 13 mm
growth inhibition (GI) (Bacillus subtilis): inactive
MIC (Aspergillus fumigatus): > 1000 µg/mL
diameter of the inhibition zone (DIZ) (Pseudomonas aeruginosa): 12 mm
diameter of the inhibition zone (DIZ) (Staphylococcus aureus): 14 mm
growth inhibition (GI) (Shigella flexneri): inactive
growth inhibition (GI) (Salmonella typhi): inactive
MIC (Alternaria alternata): 1000 µg/mL (≈ 2910 µM)
MIC (Aspergillus flavus): 1000 µg/mL (≈ 2910 µM)

Nc1nc(-c2ccccc2)cc(-c2ccc(-n3ccnc3)cc2)n1
diameter of the inhibition zone (DIZ) (Escherichia coli): 11 mm
diameter of the inhibition zone (DIZ) (Bacillus subtilis): 13 mm
MIC (Aspergillus fumigatus): 1000 µg/mL (≈ 3190 µM)
growth inhibition (GI) (Pseudomonas aeruginosa): inactive
growth inhibition (GI) (Staphylococcus aureus): inactive
growth inhibition (GI) (Shigella flexneri): inactive
growth inhibition (GI) (Salmonella typhi): inactive
MIC (Alternaria alternata): > 1000 µg/mL
MIC (Aspergillus flavus): 1000 µg/mL (≈ 3190 µM)

Nc1nc(-c2ccc(-n3ccnc3)cc2)cc(-c2ccc(Cl)c(Cl)c2Cl)n1
diameter of the inhibition zone (DIZ) (Escherichia coli): 18 mm
diameter of the inhibition zone (DIZ) (Bacillus subtilis): 15 mm
MIC (Aspergillus fumigatus): > 1000 µg/mL
growth inhibition (GI) (Pseudomonas aeruginosa): inactive
diameter of the inhibition zone (DIZ) (Staphylococcus aureus): 15 mm
diameter of the inhibition zone (DIZ) (Shigella flexneri): 11 mm
growth inhibition (GI) (Salmonella typhi): inactive
MIC (Alternaria alternata): > 1000 µg/mL
MIC (Aspergillus flavus): > 1000 µg/mL

Nc1nc(-c2ccc(Cl)cc2)cc(-c2ccc(-n3ccnc3)cc2)n1
diameter of the inhibition zone (DIZ) (Escherichia coli): 18 mm
diameter of the inhibition zone (DIZ) (Bacillus subtilis): 12 mm
MIC (Aspergillus fumigatus): 1000 µg/mL (≈ 2880 µM)
growth inhibition (GI) (Pseudomonas aeruginosa): inactive
growth inhibition (GI) (Staphylococcus aureus): inactive
diameter of the inhibition zone (DIZ) (Shigella flexneri): 11 mm
growth inhibition (GI) (Salmonella typhi): inactive
MIC (Alternaria alternata): 1000 µg/mL (≈ 2880 µM)
MIC (Aspergillus flavus): 1000 µg/mL (≈ 2880 µM)

Nc1nc(-c2ccc(Br)cc2)cc(-c2ccc(-n3ccnc3)cc2)n1
diameter of the inhibition zone (DIZ) (Escherichia coli): 12 mm
diameter of the inhibition zone (DIZ) (Bacillus subtilis): 13 mm
MIC (Aspergillus fumigatus): 1000 µg/mL (≈ 2550 µM)
growth inhibition (GI) (Pseudomonas aeruginosa): inactive
diameter of the inhibition zone (DIZ) (Staphylococcus aureus): 12 mm
diameter of the inhibition zone (DIZ) (Shigella flexneri): 12 mm
growth inhibition (GI) (Salmonella typhi): inactive
MIC (Alternaria alternata): > 1000 µg/mL
MIC (Aspergillus flavus): 1000 µg/mL (≈ 2550 µM)

Nc1nc(-c2ccc(F)cc2)cc(-c2ccc(-n3ccnc3)cc2)n1
diameter of the inhibition zone (DIZ) (Escherichia coli): 16 mm
growth inhibition (GI) (Bacillus subtilis): inactive
MIC (Aspergillus fumigatus): 500 µg/mL (≈ 1510 µM)
growth inhibition (GI) (Pseudomonas aeruginosa): inactive
growth inhibition (GI) (Staphylococcus aureus): inactive
diameter of the inhibition zone (DIZ) (Shigella flexneri): 12 mm
growth inhibition (GI) (Salmonella typhi): inactive
MIC (Alternaria alternata): 1000 µg/mL (≈ 3020 µM)
MIC (Aspergillus flavus): 1000 µg/mL (≈ 3020 µM)

Nc1nc(-c2ccc(-n3ccnc3)cc2)cc(-c2ccc(Cl)cc2Cl)n1
diameter of the inhibition zone (DIZ) (Escherichia coli): 14 mm
growth inhibition (GI) (Bacillus subtilis): inactive
MIC (Aspergillus fumigatus): > 1000 µg/mL
growth inhibition (GI) (Pseudomonas aeruginosa): inactive
diameter of the inhibition zone (DIZ) (Staphylococcus aureus): 11 mm
diameter of the inhibition zone (DIZ) (Shigella flexneri): 10 mm
growth inhibition (GI) (Salmonella typhi): inactive
MIC (Alternaria alternata): 1000 µg/mL (≈ 2620 µM)
MIC (Aspergillus flavus): > 1000 µg/mL

Nc1nc(-c2ccc(I)cc2)cc(-c2ccc(-n3ccnc3)cc2)n1
diameter of the inhibition zone (DIZ) (Escherichia coli): 20 mm
diameter of the inhibition zone (DIZ) (Bacillus subtilis): 21 mm
MIC (Aspergillus fumigatus): 1000 µg/mL (≈ 2280 µM)
growth inhibition (GI) (Pseudomonas aeruginosa): inactive
diameter of the inhibition zone (DIZ) (Staphylococcus aureus): 16 mm
growth inhibition (GI) (Shigella flexneri): inactive
growth inhibition (GI) (Salmonella typhi): inactive
MIC (Alternaria alternata): 1000 µg/mL (≈ 2280 µM)
MIC (Aspergillus flavus): 1000 µg/mL (≈ 2280 µM)

From ChEMBL document CHEMBL3045459 (Med Chem Res, 2013)
